According to patent US20240285784A1, “PEPTIDIC CONJUGATES OF SN38 USEFUL IN THE TREATMENT OF CANCER” (FUNDACIÓ INSTITUT DE RECERCA BIOMÈDICA (IRB BARCELONA), priority 2020, published 2024):
Read-outs that look alike come from different tables or passages of the source. *1 amine or outer side, *2 acyl side, *3 side chain or, on linkers, in order; H or OH if unused. Where a SMILES comes first, the peptide text is derived from it. Bridges are numbered along the chain shown (N, C = ends). [ ]: non-standard residue; d: D form. The star is where a group is joined. X1 = CCc1c2c(nc3ccc(O)cc13)-c1cc3c(c(=O)n1C2)COC(=O)[C@@]3(CC)OC(=O)CCCCn1cc(CCCC(=O)NCCCOCCOCCOCCCN*)nn1; Suc = O=C(CCC(=O)[*:2])[*:1]; Dap = NC[C@H](N)C(=O)O

Columns and labels:
Format in all cases: cell-based
[1] = tested on: adult glioma cell line U373; experiment: MTS cell viability assay, adult glioma cell line U373; settings: 72 h incubation, Example 9, Table 3, read-out: IC50 values against cancer cell lines
From the text: (§1) Cancer cell lines were obtained from the repository maintained at Hospital Sant Joan de Deu (Barcelona, Spain). Cancer cell lines used in these experiment included cancer types of adult glioma (U373 and U87 cell lines), pediatric gliomas including diffuse intrinsic pontine glioma (HSJD-DIPG-007, HSJD-DIPG-011), and pediatric high-grade glioma (HSJD-GBM-001), retinoblastoma (HSJD-RBT-5, HSJD-RBT-7 and HSJD-RBT-14), Ewing sarcoma (A673), rhabdomyosarcoma (Rd and RH4) and neuroblastoma (LAN-1 and SK-N-JD cell lines and HSJD-NB-004, HSJD-NB-005 and HSJD-NB-016 patient-derived cell models). […] To add the drugs to the cells in culture, SN38-linker A-MiniAp4 (Ia) and irinotecan were prepared in culture medium from stock solutions at concentration 1 mg/mL in water. SN38 was prepared in culture medium from a stock solution at concentration 1 mg/mL in DMSO. […] Activity curves were built for adult glioma cell lines U87 (FIG. 1) and U373 (FIG. 2), pediatric gliomas including DIPG models HSJD-DIPG-007 (FIG. 3) and HSJD-DIPG-011 (FIG. 4), and pediatric high-grade glioma model HSJD-GBM-001 (FIG. 5), retinoblastoma models HSJD-RBT-5 (FIG. 6), HSJD-RBT-7 (FIG. 7) and HSJD-RBT-14 (FIG. 8), Ewing sarcoma cell line A673 (FIG. 9), rhabdomyosarcoma cell lines Rd (FIG. 10) and RH4 (FIG. 11), neuroblastoma cell lines LAN-1 (FIG. 12) and SK-N-JD (FIG. 13) and neuroblastoma patient-derived cell models HSJD-NB-004 (FIG. 14), HSJD-NB-005 (FIG. 15) and HSJD-NB-016 (FIG. 16). The established IC50 values are in Table 3.

[2] = tested on: pediatric high-grade glioma HSJD-GBM-001; experiment: cells; settings: MTS, 72 h incubation
From the text: Cancer cell lines were obtained from the repository maintained at Hospital Sant Joan de Deu (Barcelona, Spain). Cancer cell lines used in these experiment included cancer types of adult glioma (U373 and U87 cell lines), pediatric gliomas including diffuse intrinsic pontine glioma (HSJD-DIPG-007, HSJD-DIPG-011), and pediatric high-grade glioma (HSJD-GBM-001), retinoblastoma (HSJD-RBT-5, HSJD-RBT-7 and HSJD-RBT-14), Ewing sarcoma (A673), rhabdomyosarcoma (Rd and RH4) and neuroblastoma (LAN-1 and SK-N-JD cell lines and HSJD-NB-004, HSJD-NB-005 and HSJD-NB-016 patient-derived cell models). Briefly, between 3000 and 30,000 cancer cells were cultured in 96 well plates and 24 h later the cells were exposed to compound SN38-linker A-MiniAp4 (Ia) (concentration range 1-0.00000001 μM), SN38 (concentration range 1-0.00000001 μM), or irinotecan (concentration range 100-0,000001 μM). To add the drugs to the cells in culture, SN38-linker A-MiniAp4 (Ia) and irinotecan were prepared in culture medium from stock solutions at concentration 1 mg/mL in water. SN38 was prepared in culture medium from a stock solution at concentration 1 mg/mL in DMSO. The tetrazolium compound [3-(4,5-dimethylthiazol-2-yl)-5-(3-carboxymethoxyphenyl)-2-(4-sulfophenyl)-2H-tetrazolium] (MTS assay; Promega, Fitchburg, WI) was used to determine cell viability after 72 h incubation with the drugs. The concentrations of drug required to cause a reduction of 50% in cell proliferation (IC50 and 95% confidence intervals) were calculated with Graphpad Prism 8 software (La Jolla, CA). Activity curves were built for adult glioma cell lines U87 (FIG. 1) and U373 (FIG. 2), pediatric gliomas including DIPG models HSJD-DIPG-007 (FIG. 3) and HSJD-DIPG-011 (FIG. 4), and pediatric high-grade glioma model HSJD-GBM-001 (FIG. 5), retinoblastoma models HSJD-RBT-5 (FIG. 6), HSJD-RBT-7 (FIG. 7) and HSJD-RBT-14 (FIG. 8), Ewing sarcoma cell line A673 (FIG. 9), rhabdomyosarcoma cell lines Rd (FIG. 10) and RH4 (FIG. 11), neuroblastoma cell lines LAN-1 (FIG. 12) and SK-N-JD (FIG. 13) and neuroblastoma patient-derived cell models HSJD-NB-004 (FIG. 14), HSJD-NB-005 (FIG. 15) and HSJD-NB-016 (FIG. 16). The established IC50 values are in Table 3.
The present inventors compared the activity of the new compound SN38 conjugated with MiniAp4 (SN38-linkerA-MiniAp4, example 7 also named G2B-001) and with SN38-linker B-THRre (comparative example 2). Original compound SN38 was used as reference. Cancer cell lines used in these experiments were pediatric gliomas including diffuse intrinsic pontine glioma HSJD-DIPG-007, and pediatric high-grade glioma HSJD-GBM-001. Briefly, 3000 cancer cells were cultured in 96 well plates and 24 h later the cells were exposed to compound compound (Ia) (concentration range 1-0.00000001 μM), SN38-Linker B-THRre (concentration range 1-0.00000001 μM), and SN38 (concentration range 1-0.00000001 μM). To add the drugs to the cells in culture, SN38-Linker A-MiniAp4 (Ia) and SN38-Linker B-THRre were prepared in culture medium from stock solutions at concentration 1 mg/mL in water. SN38 was prepared in culture medium from a stock solution at concentration 1 mg/mL in DMSO. The MTS assay was used to determine cell viability after 72 h incubation with the drugs. The concentrations of drug required to cause a reduction of 50% in cell proliferation (IC50 and 95% confidence intervals) were calculated with Graphpad Prism 8 software (La Jolla, CA). Activity curves were built for cells HSJD-DIPG-007 (FIG. 20) and HSJD-GBM-001 (FIG. 21). The established IC50 values are in Table 4.
Cancer cell lines used in these experiments were pediatric gliomas including diffuse intrinsic pontine glioma HSJD-DIPG-007, and pediatric high-grade glioma HSJD-GBM-001. Briefly, 3000 cancer cells were cultured in 96 well plates and 24 h later the cells were exposed to compounds (Ia), comparative example 1 and comparative example 2 (concentration range 1-0.001 μM for each of them). […]

[3] = tested on: adult glioma cell line U87; experiment: MTS cell viability assay, adult glioma cell line U87; settings: 72 h incubation, Example 9, Table 3, read-out: IC50 values against cancer cell lines
From the text: as §1

[4] = Example 9, Table 3, read-out: IC50 values against cancer cell lines
[5] = Example 11, Table 4, read-out: IC50 values of compounds

IC50 ([1]; Homo sapiens, U373 MG) [nM] | IC50 [2, 4] [µM] | IC50 ([3]; Glioma cell) [nM] | SMILES | IC50 [2, 5] [µM] | IC50 [1] [nM] | IC50 ([2]; Example 12, Table 5, read-out: IC50 values (μM) against cancer cell lines) [µM] | IC50 [3] [nM]
3720 | 9.57 | 9750 | CCc1c2c(nc3ccc(OC(=O)N4CCC(N5CCCCC5)CC4)cc13)-c1cc3c(c(=O)n1C2)COC(=O)[C@]3(O)CC [Irinotecan] |  |  |  | 
0.869 | 0.00261 | 4.04 | CCc1c2c(nc3ccc(O)cc13)-c1cc3c(c(=O)n1C2)COC(=O)[C@]3(O)CC [SN38, 7-ethyl-10-hydroxy-camptothecin] | 0.00631 |  |  | 

SMILES | IC50 ([1]; Homo sapiens, U373 MG) [nM] | IC50 [2, 4] [µM] | IC50 ([3]; Glioma cell) [nM] | IC50 [2, 5] [µM] | IC50 [1] [nM] | IC50 ([2]; Example 12, Table 5, read-out: IC50 values (μM) against cancer cell lines) [µM] | IC50 [3] [nM]
CCc1c2c(nc3ccc(O)cc13)-c1cc3c(c(=O)n1C2)COC(=O)[C@@]3(CC)OC(=O)CCCCn1cc(CCCC(=O)NCCCOCCOCCOCCCNC(=O)CCC(=O)N[C@H]2CNC(=O)C[C@@H](C(N)=O)NC(=O)[C@H](CC(C)C)NC(=O)[C@H](C)NC(=O)[C@H]([C@@H](C)O)NC(=O)[C@H](CCC(=O)O)NC(=O)[C@@H]3CCCN3C(=O)[C@H](C)NC(=O)[C@H](CCCCN)NC2=O)nn1 [SN38-linker A-MiniAp4 (Ia)] ({X1-Suc}-[Dap]KAPETALD-NH2; lactam 1-9) |  | 0.0703 |  | 0.00639 | 6.65 | 0.0216 | 744
